We go through nine molecules from US8357529B2, “Methods of in vitro protein synthesis” (The Board of Trustees of the Leland Stanford Junior …, priority 2002, dated 2013).

What all share (assay type): biochemical, Escherichia coli
The subject of test [1] is protein synthesis in E. coli S30 extract, PANOx system. The test is described as follows: Cell-free protein synthesis in the PANOx system (standard reaction mixture). As to the method: A standard reaction mixture for a coupled transcription-translation reaction, herein referred to as the PANOx system (Kim and Swartz (2001), supra.) contains the following components: 57 mM HEPES-KOH (pH7.5), 1.2 mM ATP, 0.85 mM each of GTP, UTP and CTP, 1 mM DTT, 200 mM potassium glutamate, 80 mM ammonium acetate, 16 mM magnesium acetate, 34 μg/ml folinic acid, 170.6 μg/ml E. coli tRNA mixture, 13.3 μg/ml plasmid, 100 μg/ml T7 RNA polymerase, 2 mM each of 20 unlabeled amino acids, 11 μM [^14C]leucine, 2% Poly(ethylene glycol) 8000, 33 mM PEP, 0.33 mM nicotinamide adenine dinucleotide, 0.26 mM Coenzyme A, 2.7 mM sodium oxalate and 0.24 volumes of S30 extract. Prokaryotic cell-free protein synthesis is performed using a crude S30 extract derived from Escherichia coli K12 (strain A19 ΔtonA ΔtnaA ΔspeA ΔendA met+), with slight modifications from the protocol of Pratt, J. M. 1984. (Coupled transcription-translation in prokaryotic cell-free systems. In Transciption and translation: a practical approach. Hanes, B. D., and S. J. Higgins. (Eds.). p. 179-209. IRL Press, New York.) T7 RNA polymerase was prepared from E. coli strain BL21 (pAR1219) according to the procedures of Davanloo et al. 1984. (Cloning and expression of the gene for bacteriophage T7 RNA polymerase. Proc Natl Acad Sci USA 81:2035-2039.)
(§1) Reactions were incubated at 37° C. for 5-6 hours. The amount of synthesized protein is estimated from the measured TCA-insoluble radioactivities using a liquid scintillation counter (Beckman LS3801). (Kim et al. 1996). Soluble protein yields were determined as previously described. (Kim and Swartz 2000).

Test [2] has as its system CAT expression in E. coli S30 extract cell-free protein synthesis. As to the method:
as §1

Test [3] has as its system oxidative phosphorylation (electron transport chain). The test is described as follows: CAT synthesis in new system with inhibitor of oxidative phosphorylation, oxygen or argon headspace. The settings on record: 20 μl batch, 37° C., 5 hours. As to the method:
In seeking to understand how this yield was accomplished, inhibitors of oxidative phosphorylation were tested to establish that this process was partially responsible for the protein production capability of this new technology. […] HQNO inhibits the electron transport chain part of oxidative phosphorylation. All cases are 20 μl batch reactions, and were incubated at 37° C. for 5 hours. The head spaces of the batch reactors were filled with either oxygen or argon, an inert gas. […]. Furthermore, protein synthesis should be unaffected upon the addition of HQNO in the cases where argon is present and oxygen is not available.

Read-outs that look alike come from different tables or passages of the source.

As to `O=[N+]([O-])c1ccc(O)c([N+](=O)[O-])c1` [2,4-dinitrophenol], in test [1] (PANOx system), the “protein synthesis yields in the PANOx system with inhibitor of oxidative phosphorylation” value is listed as “unaffected”.

As to `CC(C)(COP(=O)(O)OP(=O)(O)OC[C@H]1O[C@@H](n2cnc3c(N)ncnc32)[C@H](O)[C@@H]1OP(=O)(O)O)[C@@H](O)C(=O)NCCC(=O)NCCS` [CoA, Coenzyme A], in test [2] (Cytomim system, CAT, 15 μl, 6 hours), the “effect of removal of the cofactor on relative protein production” value is listed as “no significant effect”.

Take `CCCCCCCc1cc(O)c2ccccc2[n+]1[O-]` [HQNO, 2-heptyl-4-hydroxyquinoline-N-oxide]: the “CAT synthesis after inhibitor addition” value in test [3] (argon headspace) was “unaffected”; in test [3] (presence of oxygen, with or without pyruvate), “substantially decreases”.

For the molecule `[N-]=[N+]=[N-]` [azide], the “protein synthesis yields in the PANOx system with inhibitor of oxidative phosphorylation” value in test [1] is reported as “unaffected”.

Consider `N#CC(C#N)=NNc1cccc(Cl)c1` [carbonyl-cyanide-m-chlorophenylhydrazone], for which, in test [1] (PANOx system), the “protein synthesis yields in the PANOx system with inhibitor of oxidative phosphorylation” value is listed as “unaffected”.

As for `CC(=O)[O-].CC(=O)[O-].[Mg+2]` [magnesium acetate], in test [1], the “optimal magnesium value in the standard reaction mixture” value is reported as 19.3 mM.

On to `N[C@@H](CCC(=O)[O-])C(=O)[O-].[Mg+2]` [magnesium glutamate], for which the “optimal magnesium value in the standard reaction mixture” value in test [1] (standard reaction mixture, includes Mg from cell extract) is reported as 23.3 mM.

`[Mg+2]` [magnesium]: in test [2] (new environment, with 33 mM sodium pyruvate, includes Mg from cell extract), the “optimum magnesium concentration for protein expression” value is recorded as “approximately 11 mM”.

`O=C(CC(=O)C(F)(F)F)c1cccs1` [thenoyltrifluoroacetone]: the “protein synthesis yields in the PANOx system with inhibitor of oxidative phosphorylation” value in test [1] (PANOx system) is on record as “unaffected”.
